According to patent US20100009956A1, “NOVEL SUBSTITUTED PYRIMIDINES AS CYSTEINE PROTEASE INHIBITORS” (Glaxo Group Limited , a corporation, priority 2006, published 2010):
pIC50: −log10 of the molar value. Counter-ions that a name gives are not always drawn. Like-named read-outs stand apart in the source and are kept apart here.

Experiments:
Assay type in all cases: biochemical
Falcipain-3 = Falcipain-3 (Plasmodium falciparum, UniProt Q8IIL0); test: Falcipain-3 enzymatic assay (assay 1)
Protocol: (§1) Assay 1) Determination of Falcipain-2, Falcipain-3, Vivapain-2, Cathepsin K Cathepsin S, Cathepsin L, and Cathepsin B Proteolytic Catalytic Activity
(§2) Assays for Falcipain-2, Falcipain-3, and Vivapain-2 are carried out with parasitic recombinant enzymes. Cathepsins K, S, L, and B are carried out with human recombinant enzymes. Standard assay conditions for the determination of kinetic constants used a fluorogenic peptide substrate, typically H-D-VLR-AFC (Falcipain-2, Falcipain-3, Vivapain-2), Z-FR-AFC (Cathepsin K, L, B), or KQKLR-AMC (Cathepsin S) and are determined in 100 mM sodium acetate, pH 5.5, containing 10 mM DTT and 0.5 mM CHAPS (Falcipain-2, Falcipain-3, Vivapain-2), and 100 mM sodium acetate, pH 5.5, containing 5 mM L-cysteine, 1 mM CHAPS and 5 mM EDTA (Cathepsin K, L, B), or 50 mM MES, pH 6.5, containing 0.5 mM CHAPS, 10 mM L-CYS, 5 mM EDTA (Cathepsin S). Stock substrate solutions are prepared at 20 mM in DMSO. The activity assays contained 30 uM substrate (Falcipain-2, Falcipain-3, Vivapain-2), 20 uM substrate (Cathepsin K), 25 uM substrate (Cathepsin B), 5 uM substrate (Cathepsin L), and 30 uM substrate (Cathepsin S). All assays contained 1% DMSO. […] All assays are conducted at ambient temperature as end point assays being quenched after 60 minutes with the exception of Cathepsin S at 90 minutes, with 16.6 uM E-64 in 1% DMSO. Product formation (AFC or AMC) is determined from fluorescence (excitation at 405 nm; emission at 530 nm, AFC, or excitation at 360 nm; emission at 460 nm, AMC) monitored with a LJL Aquest (Molecular Devices) fluorescent plate reader. In the case of kinetic reads (used in mechanism of action studies), the reaction is not quenched but is read in the plate reader every 3 minutes for approximately 90 minutes. In addition, the mechanism of action studies for Falcipain-2 utilize Z-LR-AMC as the substrate. Product formation is determined from the fluorescence of AMC, measured with a LJL Acquest (Molecular Devices) fluorescent plate reader (excitation at 360 nm; emission at 460 nm).
(§3) Potential inhibitors are evaluated using the quenched read (endpoint) method. Assays are carried out in the presence of variable concentrations of test compound. Reactions are initiated by addition of enzyme and substrate to wells containing inhibitor stamped in 100% DMSO. For endpoint assays, the reaction is quenched with the addition of E64. Dose response data is fit to an IC50 curve with preset fitting tools according to equation 1:
(§4) y=a+(b−a)/(1+(10^x/10^c)^d) (1)
(§5) where y is the response at a particular inhibitor concentration x, a is the minimum response value, b is the maximum response value, c is the IC50, and d is the slope of the IC50 curve. Assuming the compound is a competitive inhibitor, the apparent KI can be calculated from IC50, as shown in equation 2: […]

Falcipain-2 = Falcipain-2 (Plasmodium falciparum, UniProt Q8I6U4); test: Falcipain-2 enzymatic assay (assay 1)
Protocol: as §1, §2, §3, §4, §5

Cathepsin K = target: T1, Cathepsin K (Homo sapiens, UniProt P43235); test: Cathepsin K enzymatic assay (assay 1); settings: human recombinant enzyme, Z-FR-AFC substrate, pH 5.5
T1 sequence (P43235 115-329): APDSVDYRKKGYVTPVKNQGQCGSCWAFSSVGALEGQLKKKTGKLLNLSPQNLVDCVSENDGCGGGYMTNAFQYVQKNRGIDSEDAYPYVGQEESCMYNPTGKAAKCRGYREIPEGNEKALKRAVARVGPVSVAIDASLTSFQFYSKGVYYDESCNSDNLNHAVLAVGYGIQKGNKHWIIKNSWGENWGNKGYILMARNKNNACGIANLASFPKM
Protocol: as §1, §2, §3, §4, §5

Falcipain-2, sequence (Q8I6U4 244-484): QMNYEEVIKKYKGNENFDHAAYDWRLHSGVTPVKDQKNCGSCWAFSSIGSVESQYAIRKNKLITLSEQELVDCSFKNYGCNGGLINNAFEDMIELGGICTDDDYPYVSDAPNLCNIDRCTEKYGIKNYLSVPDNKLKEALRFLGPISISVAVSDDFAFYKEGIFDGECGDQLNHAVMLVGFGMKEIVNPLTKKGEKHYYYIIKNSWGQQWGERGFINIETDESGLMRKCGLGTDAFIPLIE
Falcipain-3, sequence (Q8IIL0 243-492): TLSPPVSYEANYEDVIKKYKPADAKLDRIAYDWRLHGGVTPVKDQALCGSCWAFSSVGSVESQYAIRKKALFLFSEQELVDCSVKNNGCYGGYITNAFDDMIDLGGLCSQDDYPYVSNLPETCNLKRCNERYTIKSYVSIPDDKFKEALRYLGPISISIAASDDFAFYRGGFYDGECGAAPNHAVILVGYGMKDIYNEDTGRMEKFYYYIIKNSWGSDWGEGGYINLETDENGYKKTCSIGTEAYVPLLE

Row | Structure (SMILES) | pIC50 (Falcipain-3) | pIC50 (Falcipain-2) | pIC50 (Falcipain-2; parasitic recombinant enzyme, H-D-VLR-AFC substrate, pH 5.5, endpoint read, read-out: Falcipain-2 IC50) | pIC50 (Cathepsin K)
1 | CCN(C)Cc1ccc(C(=O)NN(c2nc(C#N)ncc2Cl)C2CCCC2)cc1 [Example 74, N′-(5-chloro-2-cyano-4-pyrimidinyl)-N′-cyclopentyl-4-{[ethyl(methyl)amino]methyl}benzohydrazide trifluoroacetate] | 6.82 to 7.82 | > 9.00 | – | –
2 | CN1CCN(Cc2ccc(C(=O)NN(c3nc(C#N)ncc3Br)C3CCOCC3)cc2)CC1 [Example 42, N′-(5-bromo-2-cyano-4-pyrimidinyl)-4-[(4-methyl-1-piperazinyl)methyl]-N′-(tetrahydro-2H-pyran-4-yl)benzohydrazide trifluoroacetate] | 6.82 to 7.82 | – | > 9.00 | –
3 | CN1CCC(CN2CCN(Cc3ccc(C(=O)NN(c4nc(C#N)ncc4Cl)C4CCOCC4)cc3)CC2)CC1 [Example 35, N′-(5-Chloro-2-cyano-4-pyrimidinyl)-4-({4-[(1-methyl-4-piperidinyl)methyl]-1-piperazinyl}methyl)-N′-(tetrahydro-2H-pyran-4-yl)benzohydrazide trifluoroacetate] | 6.82 to 7.82 | 8.60 to 9.00 | – | > 7.77
4 | CN1CCN(C2CCN(Cc3cccc(C(=O)NN(c4nc(C#N)ncc4Br)C4CCCCC4)c3)CC2)CC1 [Example 20, N′-(5-bromo-2-cyano-4-pyrimidinyl)-N′-cyclohexyl-3-{([4-(4-methyl-1-piperazinyl)-1-piperidinyl]methyl}benzohydrazide trifluoroacetate] | 6.82 to 7.82 | > 9.00 | – | > 8.82
5 | CC1CCC(N(NC(=O)c2ccc(CN3CCN(C)CC3)cc2)c2nc(C#N)ncc2Br)C1 (mixture of isomers) [Example 26, N′-(5-bromo-2-cyano-4-pyrimidinyl)-N′-(3-methylcyclopentyl)-4-[(4-methyl-1-piperazinyl)methyl]benzohydrazide trifluoroacetate] | 6.82 to 7.82 | > 9.00 | – | –
6 | CN1CCN(c2cccc(C(=O)NN(c3nc(C#N)ncc3Cl)C3CCCC3)n2)CC1 [Example 78, N′-(5-chloro-2-cyano-4-pyrimidinyl)-N′-cyclopentyl-6-(4-methyl-1-piperazinyl)-2-pyridinecarbohydrazide trifluoroacetate] | 6.82 to 7.82 | > 9.00 | – | –
7 | CN1CCC(CN2CCN(Cc3ccc(C(=O)NN(c4nc(C#N)ncc4Br)C4CCCCC4)cc3)CC2)CC1 [Example 19, N′-(5-bromo-2-cyano-4-pyrimidinyl)-N′-cyclohexyl-4-({4-[(-methyl-4-piperidinyl)methyl]-1-piperazinyl}methyl)benzohydrazide trifluoroacetate] | 7.82 to 8.60 | > 9.00 | – | > 8.82
8 | CN1CCC(CN2CCN(Cc3ccc(C(=O)NN(c4nc(C#N)ncc4Br)C4CCCC4)cc3)CC2)CC1 [Example 7, N′-(5-bromo-2-cyano-4-pyrimidinyl)-N′-cyclopentyl-4-({4-[(1-methyl-4-piperidinyl)methyl]-1-piperazinyl}methyl)benzohydrazide trifluoroacetate] | 7.82 to 8.60 | > 9.00 | – | > 8.82
9 | N#Cc1ncc(Br)c(N(NC(=O)c2ccc(CN3CC(N4CCCC4)C3)cc2)C2CCOCC2)n1 [Example 33, N′-(5-bromo-2-cyano-4-pyrimidinyl)-4-{[3-(1-pyrrolidinyl)-1-azetidinyl]methyl}-N′-(tetrahydro-2H-pyran-4-yl)benzohydrazide trifluoroacetate] | 6.82 to 7.82 | > 9.00 | – | > 7.77
10 | C[C@@H]1CCC[C@H]1N(NC(=O)c1ccc(CN2CCN(C)CC2)cc1)c1nc(C#N)ncc1Br [Example 3, N′-(5-bromo-2-cyano-4-pyrimidinyl)-N′-[(1R,2R+1S,2S)-2-methylcyclopentyl]-4-[(4-methyl-1-piperazinyl)methyl]benzohydrazide trifluoroacetate] | 7.82 to 8.60 | > 9.00 | – | > 8.82
11 | N#Cc1ncc(Br)c(N(NC(=O)c2ccc(CN3CCC(N4CCOCC4)CC3)cc2)C2CCCC2)n1 [Example 6, N′-(5-bromo-2-cyano-4-pyrimidinyl)-N′-cyclopentyl-4-{([4-(4-morpholinyl)-1-piperidinyl]methyl}benzohydrazide trifluoroacetate] | 7.82 to 8.60 | > 9.00 | – | > 8.82
12 | CCN(Cc1ccc(C(=O)NN(c2nc(C#N)ncc2Cl)C2CCCC2)cc1)C(C)C [Example 68, N′-(5-chloro-2-cyano-4-pyrimidinyl)-N′-cyclopentyl-4-{[ethyl(1-methylethyl)amino]methyl}benzohydrazide trifluoroacetate] | 7.82 to 8.60 | > 9.00 | – | –
13 | CN(CCO)Cc1ccc(C(=O)NN(c2nc(C#N)ncc2Cl)C2CCCC2)cc1 [Example 58, N′-(5-chloro-2-cyano-4-pyrimidinyl)-N′-cyclopentyl-4-{[(2-hydroxyethyl)(methyl)amino]methyl}benzohydrazide trifluoroacetate] | 8.60 to 9.00 | > 9.00 | – | –
14 | CN1CCN(C2CCN(Cc3ccc(C(=O)NN(c4nc(C#N)ncc4Br)C4CCN(C(=O)OCc5ccccc5)CC4)cc3)CC2)CC1 [Example 48, Phenylmethyl 4-{1-(5-bromo-2-cyano-4-pyrimidinyl)-2-[(4-{[4-(4-methyl-1-piperazinyl)-1-piperidinyl]methyl}phenyl)carbonyl]hydrazino}-1-piperidinecarboxylate triflouroacetate] | 7.82 to 8.60 | 8.60 to 9.00 | – | –
15 | CN(Cc1ccc(C(=O)NN(c2nc(C#N)ncc2Cl)C2CCCC2)cc1)CC(O)CO (centres unmarked) [Example 76, N′-(5-chloro-2-cyano-4-pyrimidinyl)-N′-cyclopentyl-4-{[(2,3-dihydroxypropyl)(methyl)amino]methyl}benzohydrazide trifluoroacetate] | 7.82 to 8.60 | > 9.00 | – | –
16 | CN1CCN(Cc2ccc(C(=O)NN(c3nc(C#N)ncc3Cl)C3CCOCC3)cc2)CC1 [Example 67, N′-(5-chloro-2-cyano-4-pyrimidinyl)-4-[(4-methyl-1-piperazinyl)methyl]-N′-(tetrahydro-2H-pyran-4-yl)benzohydrazide trifluoroacetate] | 7.82 to 8.60 | > 9.00 | – | –
17 | CN1CCN(Cc2ccc(C(=O)NN(CC(C)(C)C)c3nc(C#N)ncc3Br)cc2)CC1 [Comparative Example 39, N′-(5-bromo-2-cyano-4-pyrimidinyl)-N′-(2,2-dimethylpropyl)-4-[(4-methyl-1-piperazinyl)methyl]benzohydrazide trifluoroacetate, reference compound] | 6.60 to 6.82 | 6.82 to 7.82 | – | –
18 | CC(C)N(Cc1ccc(C(=O)NN(c2nc(C#N)ncc2Cl)C2CCCC2)cc1)C1CCCCC1 [Example 75, N′-(5-chloro-2-cyano-4-pyrimidinyl)-4-{[cyclohexyl(1-methylethyl)amino]methyl}-N′-cyclopentylbenzohydrazide trifluoroacetate] | 7.82 to 8.60 | > 9.00 | – | –
19 | CN(Cc1ccc(C(=O)NN(c2nc(C#N)ncc2Cl)C2CCCC2)cc1)C(C)(C)C [Example 73, N′-(5-chloro-2-cyano-4-pyrimidinyl)-N′-cyclopentyl-4-{[(1,1-dimethylethyl)(methyl)amino]methyl}benzohydrazide trifluoroacetate] | 7.82 to 8.60 | > 9.00 | – | –
20 | N#Cc1ncc(Br)c(N(NC(=O)c2cccc(CN3CCC(N4CCOCC4)CC3)c2)C2CCCC2)n1 [Example 13, N′-(5-bromo-2-cyano-4-pyrimidinyl)-N′-cyclopentyl-3-{[4-(4-morpholinyl)-1-piperidinyl]methyl}benzohydrazide trifluoroacetate] | 7.82 to 8.60 | > 9.00 | – | –
